# Molecular target: T1, acyl-CoA:cholesterol acyltransferase (ACAT) (Oryctolagus cuniculus, UniProt G1SFD9)
# T1 construct: a tissue preparation containing rabbit intestinal microsomes; from tissue; host or cells: rabbit intestinal microsomes
# T1 sequence (G1SFD9 1-524): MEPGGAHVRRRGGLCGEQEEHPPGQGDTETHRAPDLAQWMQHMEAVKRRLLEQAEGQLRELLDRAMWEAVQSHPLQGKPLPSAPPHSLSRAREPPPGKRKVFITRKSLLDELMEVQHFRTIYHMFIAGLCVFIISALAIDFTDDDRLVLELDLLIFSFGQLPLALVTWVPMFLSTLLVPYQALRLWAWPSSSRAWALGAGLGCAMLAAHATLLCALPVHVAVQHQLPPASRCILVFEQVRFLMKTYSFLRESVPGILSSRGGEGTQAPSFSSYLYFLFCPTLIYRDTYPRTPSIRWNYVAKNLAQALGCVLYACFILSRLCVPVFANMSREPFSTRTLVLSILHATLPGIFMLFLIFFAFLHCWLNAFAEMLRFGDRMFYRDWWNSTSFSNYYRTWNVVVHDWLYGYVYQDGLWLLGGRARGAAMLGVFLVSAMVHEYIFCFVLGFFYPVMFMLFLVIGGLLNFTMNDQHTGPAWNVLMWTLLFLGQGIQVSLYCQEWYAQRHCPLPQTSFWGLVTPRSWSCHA
# Assay: ACAT inhibition in vitro: radiolabeled cholesterol oleate formed from radiolabeled oleic acid in rabbit intestinal microsomes
# Format: biochemical
# Details: concentration required to inhibit 50% expression of the enzyme
# Procedure: The ability of representative compounds of the present invention to inhibit ACAT was measured using an in vitro test more fully described in Field, F. J. and Salone, R. G., Biochemica et Biophysica 712:557-570 (1982). The test assesses the ability of a test compound to inhibit the acylation of cholesterol by oleic acid by measuring the amount of radiolabeled cholesterol oleate formed from radiolabeled oleic acid in a tissue preparation containing rabbit intestinal microsomes.
# The data appear in Table 1 where they are expressed in IC50 values; i.e., the concentration of test compound required to inhibit 50% […] of the enzyme.
row,IC50 [µM],SMILES
1,0.11,"CCCCCCCN(CC1(c2ccccc2)CCCC1)C(=O)Nc1c(C(C)C)cccc1C(C)C [Example 9, N'-[2,6-bis(1-methylethyl)phenyl]-N-heptyl-N-[(1phenylcyclopentyl)methyl]urea]"
2,0.31,"CCCCCCCN(CC1(c2ccccc2)CCCC1)C(=O)Nc1ccc(F)cc1F [Example 11, N'-(2,4-difluorophenyl)-N-heptyl-N-[(1-phenylcyclopentyl)methyl]urea]"
3,0.059,"Cc1cccc(C)c1NC(=O)N(Cc1ccccc1)CC1(c2ccccc2)CCCC1 [Example 8, N'-[(2,6-dimethyl)phenyl]-N-benzyl-N-[(1-phenylcyclopentyl)methyl]urea]"
4,1.3,"CCCCCCCN(CC(c1ccccc1)c1ccccc1)C(=O)Nc1c(C)cccc1C [Example 12, N'-[(2,6-dimethyl)phenyl]-N-heptyl-N-[(2,2-diphenyl)ethyl]urea]"
5,0.17,"CCCCCCCN(CC(c1ccccc1)c1ccccc1)C(=O)Nc1ccc(F)cc1F [Example 13, N'-(2,4-difluorophenyl)-N-heptyl-N-[(2,2-diphenyl)ethyl]urea]"
6,0.061,CCCCCCCN(CC1(c2ccccc2)CCCC1)C(=O)Nc1c(C)cccc1C [Example 10]

# The remaining lines, values behind:
row,SMILES,IC50 [µM]
1,"O=C(Nc1ccc(F)cc1F)N(Cc1ccccc1)CC1(c2ccccc2)CCCC1 [Example 4, N'-(2,4-difluorophenyl)-N-benzyl-N-[(1-phenylcyclopentyl)methyl]urea]",0.09
2,"O=C(Nc1c(Cl)cccc1Cl)N(Cc1ccccc1)CC1(c2ccccc2)CCCC1 [Example 5, N'-(2,6-dichlorophenyl)-N-benzyl-N-[(1-phenylcyclopentyl)methyl]urea]",0.051
3,"CC(C)c1cccc(C(C)C)c1NC(=O)N(Cc1ccccc1)CC(c1ccccc1)c1ccccc1 [Example 3, N'-[2,6-bis(1-methylethyl)phenyl]-N-benzyl-N-[(2,2-diphenyl)ethyl]urea]",1.3
4,"O=C(Nc1ccc(F)cc1F)N(Cc1ccccc1)CC(c1ccccc1)c1ccccc1 [Example 1, N'-(2,4-difluorophenyl)-N-benzyl-N-[(2,2-diphenyl)ethyl]urea]",0.29
5,"Cc1cccc(C)c1NC(=O)N(Cc1ccccc1)CC(c1ccccc1)c1ccccc1 [Example 2, N'-[(2,6-dimethyl)phenyl]-N-benzyl-N-[(2,2-diphenyl)ethyl]urea]",1.37
6,"CC(C)c1cccc(C(C)C)c1NC(=O)N(Cc1ccccc1)CC1(c2ccccc2)CCCC1 [Example 7, N'-[2,6-bis(1-methylethyl)phenyl]-N-benzyl-N-[(1-phenylcyclopentyl)methyl]urea]",0.17
7,"Cc1cc(C)c(NC(=O)N(Cc2ccccc2)CC2(c3ccccc3)CCCC2)c(C)c1 [Example 6, N'-(2,4,6-trimethylphenyl)-N-benzyl-N-[(1-phenylcyclopentyl)methyl]urea]",0.08
